Results reported in US11147801B2, “Methods of use for trisubstituted benzotriazole derivatives as dihydroorotate oxygenase inhibitors” (Aurigene Discovery Technologies Limited, priority 2017, dated 2021).

Assays:
CJM = assay: Tumor cell line panel screen, 72 hrs; format: cell-based; conditions: Homo sapiens, melanoma
Method: (§1) A tumor cell line panel screen aimed at identifying tumor cell subsets that were particularly sensitive to inhibition of DHODH with Compound 1 was performed. Compound 1 is represented by the following structural formula: […]
(§2) These cell lines were treated with Compound 1 for a total of 72 hrs.
(§3) Table 1 is a list of some of the sensitive cell lines to Compound 1 along with GI50 values and max growth response. A maximum inhibition of 100 represents complete growth inhibition; a max inhibition value>100 represents cell killing.

DU145 = assay: Tumor cell line panel screen, 72 hrs; format: cell-based; conditions: Homo sapiens, DU-145, DU145, prostate cancer
Method: as §1, §2, §3

DU4475 = assay: Tumor cell line panel screen, 72 hrs; format: cell-based; conditions: Homo sapiens, DU-4475, DU4475, triple negative breast cancer
Method: as §1, §2, §3

JVM13 = assay: Tumor cell line panel screen, 72 hrs; format: cell-based; conditions: Homo sapiens, JVM13, B-prolymphocytic leukemia
Method: as §1, §2, §3

JYSE150 = assay: Tumor cell line panel screen, 72 hrs; format: cell-based; conditions: Homo sapiens, JYSE150, esophageal squamous cell carcinoma
Method: as §1, §2, §3

KYSE510 = assay: Tumor cell line panel screen, 72 hrs; format: cell-based; conditions: Homo sapiens, KYSE-510, KYSE510, esophageal squamous cell carcinoma
Method: as §1, §2, §3

MINO = assay: Tumor cell line panel screen, 72 hrs; format: cell-based; conditions: Homo sapiens, mantle cell lymphoma
Method: as §1, §2, §3

MOLM13 = assay: Tumor cell line panel screen, 72 hrs; format: cell-based; conditions: Homo sapiens, MOLM-13, MOLM13, acute myeloid leukemia
Method: as §1, §2, §3

MV411 = assay: Tumor cell line panel screen, 72 hrs; format: cell-based; conditions: Homo sapiens, MV4-11, MV411, child acute myeloid leukemia
Method: as §1, §2, §3

OCILY8 = assay: Tumor cell line panel screen, 72 hrs; format: cell-based; conditions: Homo sapiens, OCI-Ly8, OCILY8, diffuse large B cell lymphoma
Method: as §1, §2, §3

RL = assay: Tumor cell line panel screen, 72 hrs; format: cell-based; conditions: Homo sapiens, non-Hodgkin's lymphoma
Method: as §1, §2, §3

SR786 = assay: Tumor cell line panel screen, 72 hrs; format: cell-based; conditions: Homo sapiens, SR-786, SR786, anaplastic large cell lymphoma
Method: as §1, §2, §3

SUDHL5 = assay: Tumor cell line panel screen, 72 hrs; format: cell-based; conditions: Homo sapiens, SU-DHL-5, SUDHL5, diffuse large B cell lymphoma
Method: as §1, §2, §3

SUM159PT = assay: Tumor cell line panel screen, 72 hrs; format: cell-based; conditions: Homo sapiens, SUM-159-PT, triple negative breast cancer
Method: as §1, §2, §3

[1] = tested on: cell lines of heme lineage; assay: Follow-up screen on expanded panel of cell lines of heme lineage, 4-day growth assay; format: cell-based, human
Method: A follow-up screen was performed on an expanded panel of cell lines of heme lineage in a 4-day growth assay. Growth was assessed by Cell-Titer Glo measurements on day 0 and day 4.
Compound 1, of which diffuse large B cell lymphoma (DLBCL) lines were particularly sensitive (8/11 or 73%). A subset of the heme lines that were of intermediate sensitivity (defined as >50% and <75% growth rate inhibition) or insensitive (defined as <50% growth rate inhibition) to compound 1 in this follow-up screen were subjected to extended growth assays to evaluate if increased treatment time modulated their sensitivity profile. Specifically, these heme lines were pretreated with Compound 1 for three days at the indicated concentrations and then re-plated for a standard 4-day growth assay in fresh media/drug.

AML_2 tumor = assay: Patient-derived AML xenograft model AML_2; format: in vivo, CB17 SCID mice; conditions: 100 mg/kg BID PO
Method: (§4) A screen was next performed using a small number of mice/group to assess efficacy of Compound 1 in AML and DLBCL patient-derived xenograft models. Tumor-bearing mice (n=3/group) were treated with vehicle or Compound 1 at 100 mg/kg BID PO.

AML_5 tumor = assay: Patient-derived AML xenograft model AML_5; format: in vivo, CB17 SCID mice; conditions: AML 5 patient-derived xenograft, 100 mg/kg BID PO
Method: as §4

[2] = tested on: AML and DLBCL patient-derived xenograft models; assay: AML and DLBCL patient-derived xenograft models (all models); format: in vivo, CB17 SCID mice; conditions: all five AML and two DLBCL patient-derived models, 100 mg/kg BID PO
Method: as §4

CARNAVAL = assay: Double-hit DLBCL 96-hr growth assay; format: cell-based, human
Method: (§5) FIG. 8 is a curve showing the relative growth rate of OCILY18, SC-1 and CARNAVAL double hit diffuse large B cell lymphoma (DLBCL) cell lines treated with various concentrations of Compound 1 for 96 hours.

OCILY18 = assay: Double-hit DLBCL 96-hr growth assay; format: cell-based, human
Method: as §5

SC-1 = assay: Double-hit DLBCL 96-hr growth assay; format: cell-based, human; conditions: SC-1, double-hit DLBCL
Method: as §5

OCILY-19 tumors = assay: OCILY-19 diffuse large B-cell lymphoma xenograft model; format: in vivo, CB17 SCID mice
Method: 7×10^6 OCILY-19 cells were implanted subcutaneously into CB17 SCID mice. Mice (n=15-18/group) were treated with vehicle or Compound 1 at the indicated dose/frequency once tumors reached an average of ˜150 mm^3. Tissues were collected at the indicated timepoints post-last dose for PK and biomarker analyses.

BTS49 = assay: Triple negative breast cancer cell line panel, 96 hours; format: cell-based, human; conditions: BTS49, 96 hours
Description: (§6) A panel of triple negative cancer cell lines (TNBC) were screened to evaluate whether a subset of TNBC could potentially benefit from treatment with compound 1 as a single agent.

HCC1143 = assay: as above; format: cell-based, human; conditions: HCC1143, 96 hours
Description: as §6

HCC1806 = assay: as above; format: cell-based, human; conditions: HCC1806, 96 hours
Description: as §6

HCC38 = assay: as above; format: cell-based, human; conditions: HCC38, 96 hours
Description: as §6

Cc1ccccc1-c1ccc(-c2cc(C(=O)O)c3c(c2)nnn3C)cc1 [Compound 1, 1-methyl-5-(2′-methyl-[1,1′-biphenyl]-4-yl)-1H-benzo[d][1,2,3]triazole-7-carboxylic Acid]
GI50 (CJM): 620 nM
GI50 (DU145): 480 nM
GI50 (DU4475): 100 nM
GI50 (JVM13): 20 nM
GI50 (JYSE150): 100 nM
GI50 (KYSE510): 130 nM
GI50 (MINO): 30 nM
GI50 (MOLM13): 60 nM
GI50 (MV411): 270 nM
GI50 (OCILY8): 20 nM
GI50 (RL): 80 nM
GI50 (SR786): 50 nM
GI50 (SUDHL5): 20 nM
GI50 (SUM159PT): 140 nM
Share of diffuse large B cell lymphoma (DLBCL) lines that were sensitive ([1]; 8/11 lines): 73%
Share of the heme lines screened that exhibited sensitivity ([1]; 20/80 lines): 25%
TGI (AML_2 tumor): > 60%
TGI (AML_5 tumor): > 60%
Anti-tumor activity [2]: anti-tumor activity of Compound 1 was observed
Sensitivity to growth inhibition (CARNAVAL): highly sensitive
Sensitivity to growth inhibition (OCILY18): highly sensitive
Sensitivity to growth inhibition (SC-1): highly sensitive
Efficacy of dosing regimen (OCILY-19 tumors; 100 mg/kg BID compared to 10 and 30 mg/kg BID): superior efficacy
Tumor DHO (OCILY-19 tumors; 100 mg/kg BID versus 10 and 30 mg/kg BID, OCILY-19 tumors): larger increase
Total tumor uridine pools (OCILY-19 tumors; 100 mg/kg BID, OCILY-19 tumors): decrease
Efficacy of dosing regimen (OCILY-19 tumors; 200 mg/kg QD compared to 100 mg/kg BID): less efficacious
In vivo tumor growth (OCILY-19 tumors; OCILY-19 DLBCL xenograft, CB17 SCID mice): strong block in in vivo tumor growth
Half-life in mice (OCILY-19 tumors; mice): short half-life
Sensitivity (BTS49): insensitive
Sensitivity (HCC1143): insensitive
Sensitivity (HCC1806): insensitive
Sensitivity (HCC38): insensitive
